The source made the active and inactive calls. The calls are words filed in the database; no cut-off is given here. Numbered stars: 1 amine (or outer) side, 2 acyl side, 3 side chain; on linkers, the order of the positions; unused ones are H or OH. Bridge positions count the residues as written; N and C are the ends. Square brackets hold non-standard residues; d marks the D form. Peptide text beside a SMILES is read from it. I, II: the chains in the order shown. X2 = NCCCC[C@H](N[*:2])C(=O)C1CCCCN([C@@H](CCC(=O)O)C(=O)[*:1])C(=O)C1; X1 = O=C(CC[C@@H]1CCCN1[*:1])[*:2]; β3hI = CC[C@H](C)[C@H](N)CC(=O)O; β3hQ = NC(=O)CC[C@H](N)CC(=O)O; β3hK = NCCCC[C@H](N)CC(=O)O; β3hS = N[C@@H](CO)CC(=O)O; Nle = CCCC[C@H](N)C(=O)O; β3hA = C[C@H](N)CC(=O)O
Assays:
Leishmania infantum [1] = experiment: Leishmanicidal activity against Leishmania infantum amastigotes after 24 hrs by propidium iodide staining based flow cytometry; format: functional
[2] = Selectivity index, ratio of LC50 for cytotoxicity against human THP1 cells to LC50 for leishmanicidal activity against Leishmania infantum MCAN/ES/89/IPZ229/1/89 promastigotes; format: toxicity, cell-based; conditions: THP-1 cells, read-out: RatioLC50
[3] = Selectivity index, ratio of LC50 for cytotoxicity against human THP1 cells to LC50 for leishmanicidal activity against Leishmania infantum amastigotes; format: toxicity, cell-based; conditions: THP-1 cells, read-out: RatioLC50
Leishmania infantum [4] = experiment: Leishmanicidal activity against Leishmania infantum MCAN/ES/89/IPZ229/1/89 promastigotes after 24 hrs by propidium iodide staining based flow cytometry; format: functional; conditions: MCAN/ES/89/IPZ229/1/89, 24 h
[5] = Cytotoxicity against human THP1 cells after 24 hrs by propidium iodide staining based flow cytometry; format: cell-based; conditions: THP-1 cells, read-out: LC50
Trypanothione reductase [6] = molecular target: T1, Trypanothione reductase (Leishmania infantum, UniProt A4HSF7); experiment: Inhibition of oxidoreductase activity of recombinant Leishmania infantum trypanothione reductase pre-incubated for 10 mins before T[S]2 and NADPH addition
T1 sequence (A4HSF7 whole entry): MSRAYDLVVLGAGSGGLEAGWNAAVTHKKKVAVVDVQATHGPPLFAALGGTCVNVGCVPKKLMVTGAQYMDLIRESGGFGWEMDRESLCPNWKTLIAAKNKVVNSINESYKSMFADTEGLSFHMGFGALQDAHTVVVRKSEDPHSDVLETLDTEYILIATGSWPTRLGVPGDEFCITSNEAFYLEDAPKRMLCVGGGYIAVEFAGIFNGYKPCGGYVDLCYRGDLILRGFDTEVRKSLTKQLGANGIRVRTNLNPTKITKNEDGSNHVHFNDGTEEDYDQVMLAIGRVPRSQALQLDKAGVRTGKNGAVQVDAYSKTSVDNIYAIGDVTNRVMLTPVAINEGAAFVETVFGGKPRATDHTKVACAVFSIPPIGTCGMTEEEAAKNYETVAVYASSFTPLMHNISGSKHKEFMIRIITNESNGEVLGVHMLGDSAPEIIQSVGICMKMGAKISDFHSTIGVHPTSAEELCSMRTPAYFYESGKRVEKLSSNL

Trypanothione reductase [7] = molecular target: T1, Trypanothione reductase; experiment: Inhibition of dimerization of HIS/FLAG tagged Leishmania infantum trypanothione reductase incubated for 16 hrs in presence of dimerization buffer by ELISA
Leishmania infantum [8] = experiment: Leishmanicidal activity against Leishmania infantum amastigotes at 25 uM after 24 hrs by propidium iodide staining based flow cytometry; format: functional, organism-based
Leishmania infantum [9] = experiment: Leishmanicidal activity against Leishmania infantum MCAN/ES/89/IPZ229/1/89 promastigotes at 25 uM after 24 hrs by propidium iodide staining based flow cytometry; format: functional, organism-based
Proteinase K = Proteinase K (Engyodontium album, UniProt P06873); experiment: Stability assessed as Tritirachium album proteinase K-mediated compound degradation by measuring half life at 50 uM by HPLC method; format: ADME; conditions: parengyodontium album
Sequence of Proteinase K (P06873 whole entry): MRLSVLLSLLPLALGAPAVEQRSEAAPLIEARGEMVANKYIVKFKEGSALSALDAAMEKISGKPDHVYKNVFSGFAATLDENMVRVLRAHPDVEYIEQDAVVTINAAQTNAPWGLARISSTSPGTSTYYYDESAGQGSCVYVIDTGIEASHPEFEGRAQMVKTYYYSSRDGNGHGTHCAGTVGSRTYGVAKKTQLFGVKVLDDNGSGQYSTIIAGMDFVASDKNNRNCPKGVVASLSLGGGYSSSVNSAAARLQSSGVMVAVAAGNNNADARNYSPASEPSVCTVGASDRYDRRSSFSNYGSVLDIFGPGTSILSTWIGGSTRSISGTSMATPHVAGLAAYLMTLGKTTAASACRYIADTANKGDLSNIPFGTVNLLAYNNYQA

With `CCCC[C@H](NC(=O)[C@H](CCCCN)NC(=O)[C@H](CCCC)NC(=O)[C@H](CO)NC(=O)[C@@H](NC(=O)CNC(=O)[C@H](CCCCN)NC(=O)[C@H](CO)NC(=O)[C@H](CCC(N)=O)NC(=O)[C@@H](NC(=O)[C@H](CCC(=O)O)N1CCCCC(C(=O)[C@H](CCCCN)NC(=O)[C@@H]2CCCN2C(=O)[C@H](CCCNC(=N)N)NC(=O)[C@H](CCCNC(=N)N)NC(=O)[C@H](CCCNC(=N)N)NC(=O)[C@H](CCCNC(=N)N)NC(=O)[C@H](CCCNC(=N)N)NC(=O)[C@H](CCCNC(=N)N)NC(=O)[C@H](CCCNC(=N)N)NC(=O)[C@H](CCCNC(=N)N)NC(=O)[C@@H](N)CCCNC(=N)N)CC1=O)[C@@H](C)CC)[C@@H](C)CC)C(=O)O` (stereo partly specified) (I: IQSKGIS[Nle]K[Nle]-OH / II: H-RRRRRRRRRP; linker I:N-II:C via X2) the LC50 (Leishmania infantum [1]) was 2800 nM, the selectivity ratio [2] was < 1 and the selectivity ratio [3] was < 1. The LC50 (Leishmania infantum [4]) was 3500 nM and the CC50 at 24 h [5] was 2500 nM.

For `CCCCCCCCCCCCCCCCCCOC[C@H](COP(=O)([O-])OCC[N+](C)(C)C)OC` [(R)-EDELFOSINE], the LC50 (Leishmania infantum [1]) was 600 nM, the selectivity ratio [2] was < 1 and the selectivity ratio [3] was 1.7. The LC50 (Leishmania infantum [4]) was 9000 nM and the CC50 at 24 h [5] was 1000 nM.

In the case of `CCCC[C@H](NC(=O)C[C@H](CCCCN)NC(=O)[C@H](CCCC)NC(=O)C[C@H](CO)NC(=O)[C@@H](NC(=O)C[C@H](C)NC(=O)[C@@H](NC(=O)C[C@H](CO)NC(=O)C[C@H](CCC(N)=O)NC(=O)[C@@H](NC(=O)[C@@H](NC(=O)[C@H](CCCCN)NC(=O)CC[C@@H]1CCCN1C(C)=O)[C@@H](C)CC)[C@@H](C)CC)C(C)C)[C@@H](C)CC)C(N)=O` (Ac-[X1]KII[β3hQ][β3hS]V[β3hA]I[β3hS][Nle][β3hK][Nle]-NH2), the IC50 (Trypanothione reductase [6]) is reported as 1650 nM, the IC50 (Trypanothione reductase [7]) is reported as 12800 nM and the Activity (Leishmania infantum [8]) is reported as “inactive”. The Activity (Leishmania infantum [9]) was “inactive” and the half-life at 50 µM (Proteinase K) was < 15 min.

With `CC[C@H](C)[C@H](NC(=O)CNC(=O)[C@@H](NC(=O)[C@H](CO)NC(=O)[C@H](CCC(N)=O)NC(=O)[C@@H](NC(=O)[C@@H](NC(=O)[C@H](CCCCN)NC(=O)[C@@H]1CCCN1C(=O)[C@H](CCCNC(=N)N)NC(=O)[C@H](CCCNC(=N)N)NC(=O)[C@H](CCCNC(=N)N)NC(=O)[C@H](CCCNC(=N)N)NC(=O)[C@H](CCCNC(=N)N)NC(=O)[C@H](CCCNC(=N)N)NC(=O)[C@H](CCCNC(=N)N)NC(=O)[C@H](CCCNC(=N)N)NC(=O)[C@@H](N)CCCNC(=N)N)[C@@H](C)CC)[C@@H](C)CC)C(C)C)C(=O)N[C@@H](CO)C(=O)N[C@@H](CC(C)C)C(=O)N[C@@H](CCCCN)C(=O)N[C@@H](CC(C)C)C(=O)O` (H-RRRRRRRRRPKIIQSVGISLKL-OH) the LC50 (Leishmania infantum [1]) was 3500 nM, the selectivity ratio [2] was < 1 and the selectivity ratio [3] was < 1. It also gave an LC50 (Leishmania infantum [4]) of 4600 nM and a CC50 at 24 h [5] of 1700 nM.

Work on `CCCC[C@H](NC(=O)[C@H](CCCCN)NC(=O)[C@H](CC(C)C)NC(=O)C[C@H](CO)NC(=O)[C@@H](NC(=O)CNC(=O)[C@@H](NC(=O)C[C@H](CO)NC(=O)[C@H](CCC(N)=O)NC(=O)[C@@H](NC(=O)C[C@@H](NC(=O)[C@H](CCCCN)NC(=O)[C@@H]1CCCN1C(=O)[C@H](CCCNC(=N)N)NC(=O)[C@H](CCCNC(=N)N)NC(=O)[C@H](CCCNC(=N)N)NC(=O)[C@H](CCCNC(=N)N)NC(=O)[C@H](CCCNC(=N)N)NC(=O)[C@H](CCCNC(=N)N)NC(=O)[C@H](CCCNC(=N)N)NC(=O)[C@H](CCCNC(=N)N)NC(=O)[C@@H](N)CCCNC(=N)N)[C@@H](C)CC)[C@@H](C)CC)C(C)C)[C@@H](C)CC)C(N)=O` (H-RRRRRRRRRPK[β3hI]IQ[β3hS]VGI[β3hS]LK[Nle]-NH2) yielded an LC50 (Leishmania infantum [1]) of 1900 nM, a selectivity ratio [2] of 5.9 and a selectivity ratio [3] of 3.1. The LC50 (Leishmania infantum [4]) was 980 nM and the CC50 at 24 h [5] was 5800 nM.

For `N=C(N)NCCC[C@H](NC(=O)[C@H](CCCNC(=N)N)NC(=O)[C@H](CCCNC(=N)N)NC(=O)[C@H](CCCNC(=N)N)NC(=O)[C@H](CCCNC(=N)N)NC(=O)[C@H](CCCNC(=N)N)NC(=O)[C@H](CCCNC(=N)N)NC(=O)[C@H](CCCNC(=N)N)NC(=O)[C@@H](N)CCCNC(=N)N)C(N)=O`, the LC50 (Leishmania infantum [1]) was > 25000 nM, the LC50 (Leishmania infantum [4]) was > 25000 nM and the CC50 at 24 h [5] was > 25000 nM.

In the case of `CCCCCCCCCCCCCCCCOP(=O)([O-])OCC[N+](C)(C)C` [MILTEFOSINE], the LC50 (Leishmania infantum [1]) is reported as 2000 nM, the selectivity ratio [2] is reported as < 1 and the selectivity ratio [3] is reported as 9.5.
